Paper PMC12005229, “Final results from the phase Ia/Ib study of the novel bromodomain and extra-terminal domain inhibitor, BI 894999, in patients with advanced solid tumors or diffuse large B-cell lymphoma” (ESMO Open, 2025)

Columns and labels:
[1] = system: HEXIM1, HIST2H2BF, and CCR2; experiment: NanoString gene expression in blood (target engagement); format: in vivo, human
Description: The evaluation of biomarkers to identify patient subgroups with differential prognosis or response to treatment was exploratory, with no formal endpoints defined. Blood samples were assessed using an in-house-designed NanoString panel (NanoString, Seattle, WA) measuring gene expression levels of HEXIM1, HIST2H2BF, and CCR2 over all time points, and postdose expression levels of HEXIM1, HIST2H2BF, and CCR2 on days 14 and 15. HEXIM1 is modulated by BET family proteins and is considered a robust pharmacodynamic marker of BET inhibition,[30] whereas HIST2H2BF and CCR2 are involved in cancer pathways.[31]^,[32]
Total RNA was extracted from whole blood using PAXgene Blood RNA kit (Qiagen, Hilden, Germany) following the manufacturer’s instructions. Total RNA was quantified by direct absorbance measurement at 260 nm using a NanoDrop Spectrophotometer (Thermo Fisher, Waltham, MA). Quality check was carried out by additional measurement of absorbance at 280 nm and calculation of the absorbance ratio OD260/OD280.
mRNA expression was assessed using a custom nCounter® (NanoString, Seattle, WA) codeset generated for the genes of interest plus housekeeping genes. Probes were hybridized to 150 ng of total RNA for 19 h at 65°C and applied to the nCounter® Preparation Station for automated removal of excess probe and immobilization of probe–transcript complexes on a streptavidin-coated cartridge. Data were collected using the nCounter® Digital Analyzer by counting the individual barcodes. Data were analyzed using an in-house analysis pipeline that follows the latest NanoString Technologies standards for the analysis of nCounter® data. The analysis pipeline includes quality checking of the raw data using the NAnostring quality Control dasHbOard (NACHO), a comprehensive method to optimize the quality control of nCounter® data.[33] The housekeeping genes ACTB, GAPDH, HPRT1, MGAT1, and TMED9 were used for normalization.

patients with DLBCL = experiment: phase Ia DLBCL extension: tumor response (RECIL 2017); format: in vivo, human
Description: PFS was measured for the period from the start of treatment to the occurrence of progressive disease or death. Tumor response was measured using RECIST 1.1[28] for patients with solid tumors and RECIL 2017[29] for those with DLBCL. OS was assessed in patients with NUT carcinoma; the OS status was to continue until 12 months after the end of the study.
Supplementary Table 1. […]
• Objective response (OR), defined as complete response (CR) or partial response (PR) with tumor assessment during treatment period for each schedule according to Response Evaluation Criteria in Solid Tumors (RECIST) version 1.1. For DLBCL patients, a minor response according to Response Evaluation Criteria in Lymphoma (RECIL) 2017 was not part of an OR […]
• Progression-free survival (PFS), defined from date of start of BI 894999 to the date of objective disease progression or death, whichever was earlier, with tumor assessment every 2 cycles (every 6 weeks for Schedule B if no delays or as close as possible to the end of the second of the 2 cycles of treatment if there was a delay) during the treatment period […]
AUC0–24, area under the plasma concentration–time curve over the 24-hour dosing interval; AUCτ, ss , area under the plasma concentration–time curve over the dosing interval τ at steady state; AE, adverse event; Cmax, maximal exposure; Cma x , s s , maximal exposure at steady state; DLBCL, diffuse large B- cell lymphoma; DLT, dose-limiting toxicity; mCRPC, metastatic castration-resistant prostate cancer; NUT, nuclear protein in […]

With `CNc1nc(-c2nc3ccc(N4CCN(C)CC4)cc3n2Cc2ccccc2)cn2c(C)nnc12` [BI 894999] the “target engagement (≥2 of 3 genes with twofold or greater change)” value ([1]; phase Ia DLBCL patient blood samples) was “target engagement was seen at all dose levels”, the “HEXIM1 induction, median fold change from baseline” value ([1]; phase Ib, NUT carcinoma, blood) was 1.93 and the “target engagement (≥2 of 3 genes with twofold or greater change)” value ([1]; phase Ib, blood samples from the various solid tumor entities) was “all showed target engagement”. The patients not assessable (patients with DLBCL; phase Ia DLBCL n = 18) was 27.8%, the “patients with partial response (BOR)” value (patients with DLBCL; phase Ia DLBCL n = 18) was 5.6% and the “patients with progressive disease” value (patients with DLBCL; phase Ia DLBCL n = 18) was 50.0%. For the same compound, the “patients with stable disease” value (patients with DLBCL; phase Ia DLBCL n = 18) was 16.7%, the “duration of response (DOR) of confirmed PR” value (patients with DLBCL; phase Ia DLBCL, one patient) was 49 days and the “Best overall response: complete response” value (patients with DLBCL; phase Ia DLBCL, schedule B) was 0 (0.0) n (%). The “Best overall response: not evaluable” value (patients with DLBCL; phase Ia DLBCL, schedule B) was 5 (35.7) n (%), the “Best overall response: partial response” value (patients with DLBCL; phase Ia DLBCL, schedule B) was 1 (7.1) n (%) and the “Best overall response: progressive disease” value (patients with DLBCL; phase Ia DLBCL, schedule B) was 6 (42.9) n (%). The “Best overall response: stable disease” value (patients with DLBCL; phase Ia DLBCL, schedule B) was 2 (14.3) n (%), the Disease control (patients with DLBCL; phase Ia DLBCL, schedule B) was 3 (21.4) n (%) and the Objective response (patients with DLBCL; phase Ia DLBCL, schedule B) was 1 (7.1) n (%). The “Best overall response: complete response” value (patients with DLBCL; phase Ia DLBCL, schedule C) was 0 (0.0) n (%), the “Best overall response: not evaluable” value (patients with DLBCL; phase Ia DLBCL, schedule C) was 0 (0.0) n (%) and the “Best overall response: partial response” value (patients with DLBCL; phase Ia DLBCL, schedule C) was 0 (0.0) n (%). The “Best overall response: progressive disease” value (patients with DLBCL; phase Ia DLBCL, schedule C) was 3 (75.0) n (%), the “Best overall response: stable disease” value (patients with DLBCL; phase Ia DLBCL, schedule C) was 1 (25.0) n (%) and the Disease control (patients with DLBCL; phase Ia DLBCL, schedule C) was 1 (25.0) n (%). For the same compound, the “Best overall response: complete response” value (patients with DLBCL; phase Ia DLBCL, total) was 0 (0.0) n (%), the “Best overall response: not evaluable” value (patients with DLBCL; phase Ia DLBCL, total) was 5 (27.8) n (%) and the “Best overall response: partial response” value (patients with DLBCL; phase Ia DLBCL, total) was 1 (5.6) n (%). The “Best overall response: progressive disease” value (patients with DLBCL; phase Ia DLBCL, total) was 9 (50.0) n (%), the “Best overall response: stable disease” value (patients with DLBCL; phase Ia DLBCL, total) was 3 (16.7) n (%) and the Disease control (patients with DLBCL; phase Ia DLBCL, total) was 4 (22.2) n (%). For the same compound, the Objective response (patients with DLBCL; phase Ia DLBCL, total) was 1 (5.6) n (%).
